# Measured values from patent US8293773B2, “1, 2, 3-triazole derivatives as new cannabinoid-1 receptor antagonists” (National Tsing Hua University, priority 2008, dated 2012).
# Biological target: T1, human CB1 receptor (Homo sapiens, UniProt P21554)
# T1 construct: expressed in transfected cells; membrane-enriched fractions
# Assay: competitive radioligand binding assay, displacement of [3H]CP55,940, CB1
# Conditions: Table 1; percent inhibition at 10 μM
# Experimental: In addition, the affinity of test compounds of this invention toward CB1 and CB2 receptors was determined by competitive radioligand binding assays in vitro. This method differentiates the binding strength between compounds by their abilities in displacing a receptor-specific radioactive ligand. […] The readings of the radioactivity retained allow further analysis of receptor binding, and assist in predictions of the pharmacological activities of the test compounds.
# In the assays, CB1 receptors are from human CB1 stably expressed cell lines, and CB2 receptors are from human CB2 stably expressed cell lines. For purification of membrane-enriched fractions, cells were scraped off from the culture dishes in ice-cold buffer A (50 mM Tris, 5 mM MgCl2, 2.5 mM EDTA, pH 7.4, 10% sucrose) with 1 mM PMSF. After sonication, the membrane-enriched fractions were centrifuged for 15 minutes at 2,000×g at 4° C. The supernatant was centrifuged again for 30 minutes at 43,000×g at 4° C. The final pellet was re-suspended in buffer A and stored at −80° C. The protein concentration of the purified membrane was determined by the Bradford method as described by the manual provided by Bio-Rad Laboratories, Inc., Hercules, Calif.
# During the receptor binding experiments, 0.2˜8 μg of membrane fractions were incubated with 0.75 nM [^3H]CP55,940 and a test compound in the incubation buffer of 50 mM Tris-HCl, 5 mM MgCl2, 1 mM EDTA, 0.3% BSA, pH 7.4. The non-specific binding was determined by using 1 μM of CP55,940. The mixture was incubated for 1.5 hours at 30° C. in Multiscreen microplates (Millipore, Billerica, Mass.). At the completion of the incubation, the reaction was terminated by Manifold filtration and washed with ice-cold wash buffer (50 mM Tris, pH 7.4, 0.25% BSA) four times. The radioactivity bound to the filters was measured by Topcount (Perkin Elmer Inc.).
# T1 sequence (P21554 whole entry): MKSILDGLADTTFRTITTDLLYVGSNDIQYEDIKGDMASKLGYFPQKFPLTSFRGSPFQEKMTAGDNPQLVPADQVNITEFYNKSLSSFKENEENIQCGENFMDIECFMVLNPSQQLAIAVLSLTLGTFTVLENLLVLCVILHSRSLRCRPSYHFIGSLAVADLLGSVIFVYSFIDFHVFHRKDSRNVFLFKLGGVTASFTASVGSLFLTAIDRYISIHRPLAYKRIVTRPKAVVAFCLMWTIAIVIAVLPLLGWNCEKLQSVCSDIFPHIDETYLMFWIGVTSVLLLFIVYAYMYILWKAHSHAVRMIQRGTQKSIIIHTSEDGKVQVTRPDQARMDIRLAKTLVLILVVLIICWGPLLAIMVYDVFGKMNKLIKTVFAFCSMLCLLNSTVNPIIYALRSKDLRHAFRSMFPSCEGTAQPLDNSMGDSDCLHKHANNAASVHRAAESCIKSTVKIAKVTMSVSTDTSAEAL
row,inhibition at 10 µM [%],Compound
1,40.8,CCCCOC(=O)Cn1nnc(-c2ccccc2)c1-c1ccccc1 [Compound 1]
2,50.5,CCCCOC(=O)Cn1nnc(-c2ccc(Cl)c(Cl)c2)c1-c1ccc(Cl)c(Cl)c1 [Compound 6]
3,64.1,CCCCOC(=O)Cn1nnc(-c2ccc(Cl)cc2)c1-c1ccc(Cl)cc1 [Compound 14]
4,33,O=C(Cn1nnc(-c2ccc(Cl)cc2)c1-c1ccc(Cl)cc1)N1CCCCC1 [Compound 16]
5,36.7,CCCCOC(=O)Cn1nnc(-c2cccc(Cl)c2)c1-c1cccc(Cl)c1 [Compound 19]
6,51.2,CCCCCOC(=O)Cn1nnc(-c2ccc(Cl)cc2)c1-c1ccc(Cl)cc1 [Compound 20]
7,15.7,CCCCOC(=O)Cn1nnc(-c2ccc(F)c(Cl)c2)c1-c1ccc(F)c(Cl)c1 [Compound 21]
8,27.1,CCCCOC(=O)Cn1nnc(-c2cccc(F)c2)c1-c1cccc(F)c1 [Compound 22]
9,29.9,CCCCOC(=O)Cn1nnc(-c2cc(Cl)cc(Cl)c2)c1-c1cc(Cl)cc(Cl)c1 [Compound 23]
10,31.6,CCCCOC(=O)CCn1nnc(-c2ccccc2)c1-c1ccccc1 [Compound 24]
11,53.6,CCCCCCCOC(=O)Cn1nnc(-c2ccc(Cl)cc2)c1-c1ccc(Cl)cc1 [Compound 25]
12,51.2,CCCCCCCCOC(=O)Cn1nnc(-c2ccc(Cl)cc2)c1-c1ccc(Cl)cc1 [Compound 26]
13,36.5,CCCCCCOC(=O)Cn1nnc(-c2ccc(Cl)cc2)c1-c1ccc(Cl)cc1 [Compound 28]
14,31.9,CCCCOC(=O)Cn1nnc(-c2ccccc2)c1-c1ccc(C(=O)OC)cc1 [Compound 29]
15,40,CCCCOC(=O)Cn1nnc(-c2ccc(OC)cc2)c1-c1ccccc1 [Compound 30]
16,18.9,CCCCOC(=O)Cn1nnc(-c2ccccc2)c1-c1ccc(C#N)cc1 [Compound 31]
17,28.3,CCCOC(=O)Cn1nnc(-c2ccc(Cl)cc2)c1-c1ccc(Cl)cc1 [Compound 32]
18,24.6,CCC(CC)OC(=O)Cn1nnc(-c2ccc(Cl)cc2)c1-c1ccc(Cl)cc1 [Compound 33]
19,45.9,CCCCOC(=O)Cn1nnc(-c2ccc(OC)cc2)c1-c1ccc(OC)cc1 [Compound 34]

row,inhibition at 10 µM [%],Compound
1,46,CCCCOC(=O)Cn1nnc(-c2ccc(C(F)(F)F)cc2)c1-c1ccc(C(F)(F)F)cc1 [Compound 35]
2,35.2,CCCCOC(=O)Cn1nnc(-c2ccccc2)c1-c1ccc(Cl)cc1 [Compound 36]
3,26.5,CCCCOC(=O)Cn1nnc(-c2ccccc2)c1-c1ccc(C)cc1 [Compound 37]
4,16.3,CCCCOC(=O)Cn1nnc(-c2ccccc2)c1-c1ccc(C(F)(F)F)cc1 [Compound 40]
5,14.7,CCCCOC(=O)Cn1nnc(-c2ccccc2)c1-c1ccc([N+](=O)[O-])cc1 [Compound 41]
6,35.6,CCCCOC(=O)Cn1nnc(-c2ccccc2)c1-c1ccsc1 [Compound 42]
7,9.8,CCCCCCNC(=O)NNC(=O)Cn1nnc(-c2ccc(Cl)cc2)c1-c1ccc(Cl)cc1 [Compound 45]
8,50.8,CCCCOC(=O)Cn1nnc(-c2ccc(Cl)cc2)c1-c1ccc(Cl)cc1Cl [Compound 46]
9,36.1,CCCCOC(=O)Cn1nnc(-c2ccccc2F)c1-c1ccccc1 [Compound 48]
10,30.3,CCCCCCCCNC(=O)NNC(=O)Cn1nnc(-c2ccc(Cl)cc2)c1-c1ccc(Cl)cc1 [Compound 49]
11,27.5,CCCCCCCNC(=O)NNC(=O)Cn1nnc(-c2ccc(Cl)cc2)c1-c1ccc(Cl)cc1 [Compound 50]
12,18.6,CCCCCNC(=O)NNC(=O)Cn1nnc(-c2ccc(Cl)cc2)c1-c1ccc(Cl)cc1 [Compound 51]
13,68.7,CCCCOC(=O)Cn1nnc(-c2ccc(Br)cc2)c1-c1ccc(Br)cc1 [Compound 53]
14,71.7,CCCCOC(=O)Cn1nnc(-c2ccc(Cl)cc2Cl)c1-c1ccc(Cl)cc1Cl [Compound 54]
15,45.7,CCCCCCOC(=O)Cn1nnc(-c2ccc(Cl)cc2)c1-c1ccc(Cl)cc1Cl [Compound 55]
16,47.7,CCCCCCOC(=O)Cn1nnc(-c2ccc(Cl)cc2Cl)c1-c1ccc(Cl)cc1 [Compound 56]
17,46.1,CCCCOC(=O)Cn1nnc(-c2ccc(C(=O)OC)cc2)c1-c1ccc(C(=O)OC)cc1 [Compound 61]
18,18.3,CCCCOC(=O)Cn1nnc(-c2cccc(Br)c2)c1-c1cccc(Br)c1 [Compound 62]
19,9.9,CCCCOC(=O)Cn1nnc(-c2cccc(C)c2)c1-c1cccc(C)c1 [Compound 63]

# Further lines, the molecule ahead of its results:
row,Compound,inhibition at 10 µM [%]
1,CCN(CC)C(=O)Cn1nnc(-c2ccccc2)c1-c1ccccc1 [Compound 2],22.6
2,O=C(Cn1nnc(-c2ccccc2)c1-c1ccccc1)N1CCCCC1 [Compound 3],26.6
3,CCCCOC(=O)Cn1cc(-c2ccccc2)nn1 [Compound 4],9.6
4,CC(C)N(C(=O)Cn1nnc(-c2ccccc2)c1-c1ccccc1)C(C)C [Compound 5],18
5,C=CCNC(=O)Cn1nnc(-c2ccccc2)c1-c1ccccc1 [Compound 7],15.4
6,O=C(Cn1nnc(-c2ccccc2)c1-c1ccccc1)NN1CCCCC1 [Compound 8],12.3
7,CNC(=O)Cn1nnc(-c2ccccc2)c1-c1ccccc1 [Compound 9],21.1
8,O=C(Cn1nnc(-c2ccc(Cl)c(Cl)c2)c1-c1ccc(Cl)c(Cl)c1)N1CCCCC1 [Compound 10],20.3
9,O=C(Cn1nnc(-c2cccc(Cl)c2)c1-c1cccc(Cl)c1)N1CCCCC1 [Compound 11],20.4
10,O=C(Cn1nnc(-c2ccc(F)c(Cl)c2)c1-c1ccc(F)c(Cl)c1)N1CCCCC1 [Compound 12],30.7
11,CCCCOC(=O)Cn1nncc1-c1ccccc1 [Compound 13],22
12,O=C(Cn1nnc(-c2ccccc2)c1-c1ccccc1)OCc1ccccc1 [Compound 15],35.4
13,O=C(Cn1nnc(-c2cc(Cl)cc(Cl)c2)c1-c1cc(Cl)cc(Cl)c1)N1CCCCC1 [Compound 17],25.9
14,O=C(Cn1nnc(-c2cccc(F)c2)c1-c1cccc(F)c1)N1CCCCC1 [Compound 18],19.7
15,O=C(NCCc1ccccc1)n1nc(-c2ccc(Cl)cc2Cl)c(-c2ccc(Cl)cc2Cl)n1 [Compound 27],46
16,CCCCN(CCCC)C(=O)Cn1nnc(-c2ccccc2)c1-c1ccccc1 [Compound 38],23.8
17,CCCCCCCCN(CCCCCCCC)C(=O)Cn1nnc(-c2ccccc2)c1-c1ccccc1 [Compound 39],4.1
18,O=C(CCn1nnc(-c2ccccc2)c1-c1ccccc1)N1CCCCC1 [Compound 43],34.4
19,CC(C)(C)OC(=O)NNC(=O)Cn1nnc(-c2ccccc2)c1-c1ccccc1 [Compound 44],14.1
20,O=C(Cn1nnc(-c2ccc(Cl)cc2Cl)c1-c1ccc(Cl)cc1)N1CCCCC1 [Compound 47],61.8
21,O=C(Cn1nnc(-c2ccccc2)c1-c1ccccc1F)N1CCCCC1 [Compound 52],11
22,CCCCCCOC(=O)Cn1nnc(-c2ccc(Cl)cc2Cl)c1-c1ccc(Cl)cc1Cl [Compound 57],55.7
23,CCCCCOC(=O)Cn1nnc(-c2ccc(Cl)cc2Cl)c1-c1ccc(Cl)cc1Cl [Compound 58],58.3
24,CCCCCCCOC(=O)Cn1nnc(-c2ccc(Cl)cc2Cl)c1-c1ccc(Cl)cc1Cl [Compound 59],30.1
25,O=C(Cn1nnc(-c2ccc(Cl)cc2Cl)c1-c1ccc(Cl)cc1Cl)N1CCCCC1 [Compound 60],55.7
26,O=C(Cn1nnc(-c2ccc(Cl)cc2Cl)c1-c1ccc(Cl)cc1Cl)N1CCOCC1 [Compound 64],26

# Same assay, conditions: Table 2; percent inhibition at 10 μM
row,Compound,inhibition at 10 µM [%]
1,O=C(c1ccccc1)n1nc(-c2ccccc2)c(-c2ccccc2)n1 [Compound 65],11.4
2,CC(C)(C)C(=O)n1nc(-c2ccccc2)c(-c2ccccc2)n1 [Compound 66],32.1
3,O=C(c1ccccc1Cl)n1nc(-c2ccccc2)c(-c2ccccc2)n1 [Compound 67],13.1
4,CC(C)(C)C(=O)n1nc(-c2ccc(Cl)cc2Cl)c(-c2ccc(Cl)cc2Cl)n1 [Compound 68],24.2
5,COc1ccc(NC(=O)n2nc(-c3ccc(Cl)cc3)c(-c3ccc(Cl)cc3)n2)cc1 [Compound 69],9.9
6,O=C(c1ccccc1)n1nc(-c2ccc(Cl)cc2)c(-c2ccc(Cl)cc2)n1 [Compound 70],16.2
7,Cc1cc(C)cc(NC(=O)n2nc(-c3ccc(Cl)cc3)c(-c3ccc(Cl)cc3)n2)c1 [Compound 71],3.6
8,O=C(NCc1ccccc1)n1nc(-c2ccc(Cl)cc2Cl)c(-c2ccc(Cl)cc2Cl)n1 [Compound 73],23.8
